Experimental data published in patent US11000033B2, “Ketone or oxime compound, and herbicide” (NISSAN CHEMICAL CORPORATION, priority 2014, dated 2021).

What was measured:
Assay type in all cases: in vivo
soybean = experiment: Test Example 5: effect on crop by foliage application, plastic box (symbol d); details: 320 g/ha, 3 weeks after application
Summary of the method: (§1)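 Greenhouse test at 25° C. to 30° C. Seeds of crops and weeds were spot-sown in boxes of sterilized diluvial soil under roughly 1.5 cm soil cover, then grown for foliage treatment.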

Leptochloa chinensis = experiment: Test Example 3: herbicidal effect by foliage application, Wagner pot (symbol D); details: application herbicide amount 320 g/ha
Summary of the method: (§2)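 Foliar spray of a water-diluted emulsion at a predetermined herbicide amount, applied to 14-day-old plants. Seedlings were raised in flooded alluvial soil (0.1–0.5 cm water) at 25–30 °C in a greenhouse. Injury was rated after 3 weeks against fixed criteria.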

Abutilon theophrasti = experiment: Test Example 5: herbicidal effect by foliage application, plastic box (symbol M); details: 320 g/ha, 3 weeks after application
Summary of the method: (§3)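 Seeds were sown in sterilized diluvial soil, covered with about 1.5 cm of soil and grown 14 days in a greenhouse at 25° C. to 30° C. An emulsifiable formulation diluted in water to a set rate was sprayed over foliage, and injury was scored 3 weeks later.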

Chenopodium album = experiment: Test Example 5: herbicidal effect by foliage application, plastic box (symbol O); details: 320 g/ha, 3 weeks after application
Summary of the method: as §3

Stellaria media = experiment: Test Example 5: herbicidal effect by foliage application, plastic box (symbol P); details: 320 g/ha, 3 weeks after application
Summary of the method: as §3

Cyperus difformis = experiment: Test Example 3: herbicidal effect by foliage application, Wagner pot (symbol E); details: application herbicide amount 320 g/ha
Summary of the method: as §2

Amaranthus retroflexus = experiment: Test Example 5: herbicidal effect by foliage application, plastic box (symbol N); details: 320 g/ha, 3 weeks after application
Summary of the method: as §3

Galium spurium = experiment: Test Example 5: herbicidal effect by foliage application, plastic box (symbol Q); details: 320 g/ha, 3 weeks after application
Description: Herbicidal Effect Test by Foliage Application
Sterilized diluvial soil was placed in a plastic box having a length of 21 cm, a width of 13 cm, and a depth of 7 cm. Each of the seeds of Digitaria ciliaris, Setaria viridis, Echinochloa crus-galli var. crus-galli, Avena fatua, Alopecurus myosuroides, Lolium multiflorum Lam., Apera spica-venti, Abutilon theophrasti, Amaranthus retroflexus, Chenopodium album, Stellaria media, Galium spurium, Veronica persica, corn, soybean, rice plant, wheat, beet, and rapeseed was sowed in a spot-like manner and was covered with the soil of a thickness of about 1.5 cm. Thereafter, the plants were grown in the greenhouse of 25° C. to 30° C. After the plants were grown for 14 days, the emulsion agent of the compound of the present invention prepared in accordance with Formulation Example 2 was diluted with water so as to be a predetermined herbicide amount and the diluted emulsion agent was uniformly applied to a foliage part with a small-size spray. 3 weeks later from the herbicide application, the effect to each plant was investigated in accordance with the criteria of Test Example 1.

Digitaria ciliaris = experiment: Test Example 5: herbicidal effect by foliage application, plastic box (symbol F); details: 320 g/ha, 3 weeks after application
Summary of the method: as §3

Veronica persica = experiment: Test Example 5: herbicidal effect by foliage application, plastic box (symbol R); details: 320 g/ha, 3 weeks after application
Summary of the method: as §3

corn = experiment: Test Example 5: effect on crop by foliage application, plastic box (symbol c); details: 320 g/ha, 3 weeks after application
Summary of the method: as §1

[1] = tested on: Echinochloa crus-galli var. crus-galli; experiment: Test Example 3: herbicidal effect by foliage application, Wagner pot (symbol H); details: application herbicide amount 320 g/ha
Summary of the method: as §2

Apera spica-venti = experiment: Test Example 5: herbicidal effect by foliage application, plastic box (symbol L); details: 320 g/ha, 3 weeks after application
Summary of the method: as §3

Setaria viridis = experiment: Test Example 5: herbicidal effect by foliage application, plastic box (symbol G); details: 320 g/ha, 3 weeks after application
Summary of the method: as §3

Alopecurus myosuroides = experiment: Test Example 5: herbicidal effect by foliage application, plastic box (symbol J); details: 320 g/ha, 3 weeks after application
Summary of the method: as §3

rice plant = experiment: Test Example 5: effect on crop by foliage application, plastic box (symbol b); details: 320 g/ha, 3 weeks after application
Summary of the method: as §1

beet = experiment: Test Example 5: effect on crop by foliage application, plastic box (symbol f); details: 320 g/ha, 3 weeks after application
Summary of the method: as §1

[2] = tested on: Echinochloa crus-galli var. crus-galli; experiment: Test Example 5: herbicidal effect by foliage application, plastic box (symbol H); details: 320 g/ha, 3 weeks after application
Summary of the method: as §3

Avena fatua = experiment: Test Example 5: herbicidal effect by foliage application, plastic box (symbol I); details: 320 g/ha, 3 weeks after application
Summary of the method: as §3

rapeseed = experiment: Test Example 5: effect on crop by foliage application, plastic box (symbol g); details: 320 g/ha, 3 weeks after application
Summary of the method: as §1

wheat = experiment: Test Example 5: effect on crop by foliage application, plastic box (symbol e); details: 320 g/ha, 3 weeks after application
Summary of the method: as §1

[3] = tested on: directly sowed rice plant; experiment: Test Example 3: effect on crop by foliage application, Wagner pot (symbol b); details: application herbicide amount 320 g/ha
Summary of the method: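 Alluvial soil in a 1/10000-are Wagner pot was flooded to a water depth of 0.1–0.5 cm. Echinochloa crus-galli var. crus-galli, Leptochloa chinensis, Cyperus difformis and rice were sown into it and grown in a greenhouse at 25–30 °C.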

Lolium multiflorum Lam. = experiment: Test Example 5: herbicidal effect by foliage application, plastic box (symbol K); details: 320 g/ha, 3 weeks after application
Summary of the method: as §3

SMILES | herbicidal effect on D (Leptochloa chinensis), grade 0-5 (Leptochloa chinensis) | herbicidal effect on E, grade 0-5 (Cyperus difformis) | herbicidal effect on H (Echinochloa crus-galli var. crus-galli), grade 0-5 [1] | effect on crop b (directly sowed rice plant), grade 0-5 [3] | d: soybean, effect on crop grade (soybean) | M: Abutilon theophrasti, herbicidal effect grade (Abutilon theophrasti) | O: Chenopodium album, herbicidal effect grade (Chenopodium album) | P: Stellaria media, herbicidal effect grade (Stellaria media) | N: Amaranthus retroflexus, herbicidal effect grade (Amaranthus retroflexus) | Q: Galium spurium, herbicidal effect grade (Galium spurium) | F: Digitaria ciliaris, herbicidal effect grade (Digitaria ciliaris) | R: Veronica persica, herbicidal effect grade (Veronica persica) | c: corn, effect on crop grade (corn) | L: Apera spica-venti, herbicidal effect grade (Apera spica-venti) | G: Setaria viridis, herbicidal effect grade (Setaria viridis) | J: Alopecurus myosuroides, herbicidal effect grade (Alopecurus myosuroides) | b: directly sowed rice plant, effect on crop grade (rice plant) | f: beet, effect on crop grade (beet) | H: Echinochloa crus-galli var. crus-galli, herbicidal effect grade [2] | I: Avena fatua, herbicidal effect grade (Avena fatua) | also measured
CC(CC1CC(O)=C(c2c(C)cc(C)cc2C)C1=O)=NOCCN (stereo not drawn) [1-132] | 1 (Herbicidal ratio of 5% or higher and lower than 20%) | 0 (Herbicidal ratio of 5% or lower (almost no effect)) | 2 (Herbicidal ratio of 20% or higher and lower than 40%) | 1 (Herbicidal ratio of 5% or higher and lower than 20%) |  |  |  |  |  |  |  |  |  |  |  |  |  |  |  |  | d: soybean, effect on crop (criteria 0-5) (soybean): 0 (Herbicidal ratio of 5% or lower (almost no effect)); M: Abutilon theophrasti, herbicidal effect (criteria 0-5) (Abutilon theophrasti): 0 (Herbicidal ratio of 5% or lower (almost no effect)); O: Chenopodium album, herbicidal effect (criteria 0-5) (Chenopodium album): 0 (Herbicidal ratio of 5% or lower (almost no effect)); P: Stellaria media, herbicidal effect (criteria 0-5) (Stellaria media): 0 (Herbicidal ratio of 5% or lower (almost no effect)); N: Amaranthus retroflexus, herbicidal effect (criteria 0-5) (Amaranthus retroflexus): 0 (Herbicidal ratio of 5% or lower (almost no effect)); Q: Galium spurium, herbicidal effect (criteria 0-5) (Galium spurium): 0 (Herbicidal ratio of 5% or lower (almost no effect)); F: Digitaria ciliaris, herbicidal effect (criteria 0-5) (Digitaria ciliaris): 0 (Herbicidal ratio of 5% or lower (almost no effect)); R: Veronica persica, herbicidal effect (criteria 0-5) (Veronica persica): 0 (Herbicidal ratio of 5% or lower (almost no effect)); c: corn, effect on crop (criteria 0-5) (corn): 0 (Herbicidal ratio of 5% or lower (almost no effect)); L: Apera spica-venti, herbicidal effect (criteria 0-5) (Apera spica-venti): 1 (Herbicidal ratio of 5% or higher and lower than 20%); G: Setaria viridis, herbicidal effect (criteria 0-5) (Setaria viridis): 0 (Herbicidal ratio of 5% or lower (almost no effect)); J: Alopecurus myosuroides, herbicidal effect (criteria 0-5) (Alopecurus myosuroides): 2 (Herbicidal ratio of 20% or higher and lower than 40%); b: directly sowed rice plant, effect on crop (criteria 0-5) (rice plant): 1 (Herbicidal ratio of 5% or higher and lower than 20%); f: beet, effect on crop (criteria 0-5) (beet): 0 (Herbicidal ratio of 5% or lower (almost no effect)); H: Echinochloa crus-galli var. crus-galli, herbicidal effect (criteria 0-5) [2]: 0 (Herbicidal ratio of 5% or lower (almost no effect)); I: Avena fatua, herbicidal effect (criteria 0-5) (Avena fatua): 1 (Herbicidal ratio of 5% or higher and lower than 20%); g: rapeseed, effect on crop (criteria 0-5) (rapeseed): 3 (Herbicidal ratio of 40% or higher and lower than 70%); e: wheat, effect on crop (criteria 0-5) (wheat): 0 (Herbicidal ratio of 5% or lower (almost no effect)); K: Lolium multiflorum Lam., herbicidal effect (criteria 0-5) (Lolium multiflorum Lam.): 3 (Herbicidal ratio of 40% or higher and lower than 70%)
CON=C(C)CC1CC(OC(=O)N(C(C)C)C(C)C)=C(c2c(C)cc(C)cc2C)C1=O (stereo not drawn) [1-158] | 2 (Herbicidal ratio of 20% or higher and lower than 40%) | 0 (Herbicidal ratio of 5% or lower (almost no effect)) | 0 (Herbicidal ratio of 5% or lower (almost no effect)) | 2 (Herbicidal ratio of 20% or higher and lower than 40%) | 0 (Herbicidal ratio of 5% or lower (almost no effect)) | 0 (Herbicidal ratio of 5% or lower (almost no effect)) | 0 (Herbicidal ratio of 5% or lower (almost no effect)) | 0 (Herbicidal ratio of 5% or lower (almost no effect)) | 0 (Herbicidal ratio of 5% or lower (almost no effect)) | 0 (Herbicidal ratio of 5% or lower (almost no effect)) | 0 (Herbicidal ratio of 5% or lower (almost no effect)) | 0 (Herbicidal ratio of 5% or lower (almost no effect)) | 0 (Herbicidal ratio of 5% or lower (almost no effect)) | 0 (Herbicidal ratio of 5% or lower (almost no effect)) | 0 (Herbicidal ratio of 5% or lower (almost no effect)) | 1 (Herbicidal ratio of 5% or higher and lower than 20%) | 1 (Herbicidal ratio of 5% or higher and lower than 20%) | 0 (Herbicidal ratio of 5% or lower (almost no effect)) | 1 (Herbicidal ratio of 5% or higher and lower than 20%) | 3 (Herbicidal ratio of 40% or higher and lower than 70%) | g: rapeseed, effect on crop grade (rapeseed): 2 (Herbicidal ratio of 20% or higher and lower than 40%); e: wheat, effect on crop grade (wheat): 0 (Herbicidal ratio of 5% or lower (almost no effect)); K: Lolium multiflorum Lam., herbicidal effect grade (Lolium multiflorum Lam.): 4 (Herbicidal ratio of 70% or higher and lower than 90%)
CCOC(=O)C(C(=O)C1CCCCC1)C1CC(O)=C(c2c(C)cc(C)cc2C)C1=O (stereo not drawn) [2-029] | 0 (Herbicidal ratio of 5% or lower (almost no effect)) | 0 (Herbicidal ratio of 5% or lower (almost no effect)) | 0 (Herbicidal ratio of 5% or lower (almost no effect)) | 4 (Herbicidal ratio of 70% or higher and lower than 90%) | 0 (Herbicidal ratio of 5% or lower (almost no effect)) | 0 (Herbicidal ratio of 5% or lower (almost no effect)) | 0 (Herbicidal ratio of 5% or lower (almost no effect)) | 0 (Herbicidal ratio of 5% or lower (almost no effect)) | 0 (Herbicidal ratio of 5% or lower (almost no effect)) | 0 (Herbicidal ratio of 5% or lower (almost no effect)) | 0 (Herbicidal ratio of 5% or lower (almost no effect)) | 0 (Herbicidal ratio of 5% or lower (almost no effect)) | 0 (Herbicidal ratio of 5% or lower (almost no effect)) | 0 (Herbicidal ratio of 5% or lower (almost no effect)) | 0 (Herbicidal ratio of 5% or lower (almost no effect)) | 0 (Herbicidal ratio of 5% or lower (almost no effect)) | 2 (Herbicidal ratio of 20% or higher and lower than 40%) | 0 (Herbicidal ratio of 5% or lower (almost no effect)) | 0 (Herbicidal ratio of 5% or lower (almost no effect)) | 2 (Herbicidal ratio of 20% or higher and lower than 40%) | g: rapeseed, effect on crop grade (rapeseed): 0 (Herbicidal ratio of 5% or lower (almost no effect)); e: wheat, effect on crop grade (wheat): 0 (Herbicidal ratio of 5% or lower (almost no effect)); K: Lolium multiflorum Lam., herbicidal effect grade (Lolium multiflorum Lam.): 1 (Herbicidal ratio of 5% or higher and lower than 20%)
